Key:
[1] = Stability test in liver microsomes (rat); assay type: in vitro ADME; conditions: 1 μM compound; for stability in rat liver microsomes compared with reference GDC-0853: 0.5 mg/mL liver microsomes, 30 minutes incubation; for RLM, percentage of remaining compound after 30 minutes of incubation: rat liver microsomes
From the text: (§1) Example 5 Stability Test in Liver Microsomes
(§2) Both male CD-1 mouse pooled liver microsomes and male SD rat pooled liver microsomes were purchased from BioreclamationIVT Corporation, USA.
(§3) Phenacetin, glucose-6-phosphate dehydrogenase (G-6-PDH) and nicotinamide adenine dinucleotide phosphate (NADP) were all purchased from Sigma-Aldrich Corporation, USA. Glucose-6-phosphate (G-6-P) was purchased from Shanghai Eybridge Chemical Technology Co., Ltd.
(§4) Ten mM test compound stock solution: a certain amount of test compound was weighed, and dissolved with an appropriate volume of DMSO to prepare a stock solution with a concentration of 10 mM for use.
(§5) Reaction stopping solution: an appropriate amount of internal standard compound phenacetin was dissolved in acetonitrile to prepare a reaction stopping solution with a concentration of 1000 ng/mL for use at room temperature.
(§6) The test compound stock solution was diluted with an organic solvent (usually a mixture of acetonitrile, methanol and water with various ratios, depending on the solubility of the compound, if necessary, 1 N hydrochloric acid or 1 N sodium hydroxide would be added to facilitate solubilization) to the 0.1 mM (the final concentration of the compound in the reaction system was 1 μM) and the concentration percentage of the organic solvents in the incubation system no more than 1% (wherein the percentage of DMSO was required to be no more than 0.1%). An appropriate amount of 100 mM NADP, 500 mM G-6-P and 100 Unit/mL G-6-PDH were mixed and diluted with ultrapure water (the final system contains 1 mM NADP, 5 mM G-6-P and 1 Unit/mL G-6-PDH), pre-incubated in a 37° C. water bath for 10 minutes and then placed on ice for use as a NADPH regeneration solution. 20 mg/mL liver microsomes solution and 200 mM phosphate buffer was mixed, and diluted with ultrapure water to give a liver microsomes solution containing 2.5 mg/mL liver microsomes (the final concentration of the reaction system is 0.5 mg/mL) and 50 mM phosphate buffer. The diluted liver microsomes solution was mixed with 0.1 mM compound solution, a mixture of 100 mM EDTA, 300 mM MgCl2 solution, 200 mM phosphate buffer (the final system was 3 mM MgCl2, 1 mM EDTA and 50 mM phosphate buffer) and water in an appropriate volume was added. Finally, the NADPH regeneration solution was added, then the reaction solution was placed in a 37° C. water bath to start the reaction (the reaction time was 30 minutes), and the reaction was stopped by adding the ice-cold acetonitrile reaction stopping solution containing the internal standard. The 0-minute sample was not incubated in a 37° C. water bath, and its difference from the 30-minute sample further lies in that the ice-cold acetonitrile reaction stopping solution containing the internal standard was added first, and then the NADPH regeneration solution was added. The sample added with the reaction stopping internal standard solution was vortexed and mixed well, and then centrifuged at 4400 rpm for 10 minutes. The supernatant was taken and diluted ten times with 50% methanol for LC-MS/MS analysis.
(§7) LC-MS/MS was used to determine the concentration of the compound in the sample. The percentage of the remaining compound after 30 minutes of incubation comparing with that in the 0-minute sample was calculated using the peak area ratio of the compound to the internal standard as an indicator, to evaluate the metabolic stability of the compound.
(§8) Instrument: API4500, API4000 or LTQ Mass Spectrometer; the liquid phase is UHPLC system (Shimadzu LC-30 AD, model Nexra X2) including liquid delivery unit, column thermostat, detector and autosampler; or Agilent 1200 Binary Pump series HPLC and CTC Autosampler.
(§9) Chromatographic column: Waters XSELECT Hss T3 C18 (2.5 μm, 2.1×50 mm) or […] (5 μm, 2.0×50 mm)
(§10) Mobile phase: • A: water with 0.1% FA (formic acid) (with or without 0.1% ACN (acetonitrile)) • B: acetonitrile with 0.1% FA (formic acid).

[2] = Stability test in liver microsomes (mouse); assay type: in vitro ADME; conditions: 1 μM compound; for stability in mouse liver microsomes compared with reference GDC-0853: 0.5 mg/mL liver microsomes, 30 minutes incubation; for MLM, percentage of remaining compound after 30 minutes of incubation: mouse liver microsomes
From the text: as §1, §2, §3, §4, §5, §6, §7, §8, §9, §10

SMILES	stability in rat liver microsomes compared with reference GDC-0853 [1]	RLM, percentage of remaining compound after 30 minutes of incubation [1] [%]	stability in mouse liver microsomes compared with reference GDC-0853 [2]	MLM, percentage of remaining compound after 30 minutes of incubation [2] [%]
CC1CCc2cc3c(=O)n(-c4nccc(-c5cc(Nc6ccc(N7CCN(C8COC8)C[C@@H]7C)cn6)c(=O)n(C)c5)c4CO)ccn3c2C1 (mixture of isomers) [Compound 78]	better than that of the reference GDC-0853	91.8	better than that of the reference GDC-0853	83.4
C[C@@H]1CN(c2ccc(Nc3cc(-c4ccnc(-n5ccn6c7c(cc6c5=O)CCC7)c4CO)cn(C)c3=O)nc2)[C@@H](C)CN1C1COC1 [Compound 2, 2-(5-((5-((2S,5R)-2,5-dimethyl-4-(oxetan-3-yl)piperazin-1-yl)pyridin-2-yl)amino)-3′-(hydroxymethyl)-1-methyl-6-oxo-1,6-dihydro-[3,4′-bispyridin]-2′-yl)-7,8-dihydro-2H-cyclopenta[4,5]pyrrolo[1,2-α]pyrazin-1(6H)-one]	better than that of the reference GDC-0853	98.9	better than that of the reference GDC-0853	90.5
Cn1cc(-c2ccnc(-n3ccn4c5c(cc4c3=O)CC(C)(C)C5)c2CO)cc(Nc2ccc(N3CCN(C4COC4)CC3)cn2)c1=O [Compound 9]	better than that of the reference GDC-0853	89.5	better than that of the reference GDC-0853	95.7
C[C@H]1CN(C2COC2)CCN1c1cnc(Nc2cc(-c3ccnc(-n4ccn5c6c(cc5c4=O)CC(C)(C)C6)c3CO)cn(C)c2=O)nc1 [Compound 44]	better than that of the reference GDC-0853	97.1	better than that of the reference GDC-0853	93.1
C[C@H]1CN(C2COC2)CCN1c1ccc(Nc2cc(-c3ccnc(-n4ccn5c6c(cc5c4=O)CCC(F)(F)C6)c3CO)cn(C)c2=O)nc1 [Compound 56]	better than that of the reference GDC-0853	93.7	better than that of the reference GDC-0853	89.5
C[C@H]1CN(C2COC2)CCN1c1ccc(Nc2cc(-c3ccnc(-n4ccn5c6c(cc5c4=O)CC(F)(F)CC6)c3CO)cn(C)c2=O)nc1 [Compound 58]	better than that of the reference GDC-0853	~100	better than that of the reference GDC-0853	97.1
C[C@H]1CN(C2COC2)CCN1c1ccc(Nc2cc(-c3ccnc(-n4cnn5c6c(cc5c4=O)CC(C)(C)C6)c3CO)cn(C)c2=O)nc1 [Compound 63]	better than that of the reference GDC-0853	89.6	better than that of the reference GDC-0853	85.8
C[C@H]1CN(C2COC2)CCN1c1ccc(Nc2cc(-c3ccnc(-n4ccn5c6c(cc5c4=O)CCC6)c3CO)cn(C)c2=O)nc1 [Compound 64]	better than that of the reference GDC-0853	92.1	better than that of the reference GDC-0853	95.6
